Read-outs that look alike come from different tables or passages of the source.
Experiments:
XIAP BIR3 = biological target: T1, XIAP BIR3 (Homo sapiens, UniProt P98170); assay: XIAP-BIR3/SMAC Homogeneous Time Resolved Fluorescence (HTRF) Assay; type: binding
T1 construct: His-BIR3 (241-356, XIAP)
Protocol: A. XIAP-BIR3/SMAC Homogeneous Time Resolved Fluorescence (HTRF) Assay Assays were performed in black, flat-bottom, 384-well plates. […] The reaction was incubated at room temperature for 60 minutes, following which 10 μl of mouse anti-6×His-terbium labeled Fab (Medarex, Cis-bio) was added to the reaction (40 μl) for an additional 30 minute incubation. […] Compounds were dissolved at 3 mM in dimethylsulfoxide (DMSO) and evaluated at eleven serially diluted concentrations. IC50 and Ki values were derived by non-linear regression analysis.

XIAP BIR2-3 = biological target: T2, XIAP BIR2-3 (Homo sapiens, UniProt P98170, C202A/C213G); assay: XIAP-BIR2-3 dimeric SMAC Peptide Homogeneous Time Resolved Fluorescence (HTRF) Assay; type: binding
T2 construct: His-BIR2-3 (125-356, C202A/C213G, XIAP)
Protocol: B. […] Assays were performed in black, flat-bottom, 384-well plates. […] Compounds were dissolved at 3 mM in dimethylsulfoxide (DMSO) and evaluated at eleven serially diluted concentrations. IC50 and Ki values were derived by non-linear regression analysis.

[1] = 1 nM N-His-BIR3 (241-356, XIAP), 5 nM fluorescein labeled SMAC peptide, HTRF signal, read-out: XIAP BIR3 IC50
[2] = 0.5 nM N-His-BIR2-3 (125-356, C202A/C213G, XIAP), 20 nM fluorescein labeled dimeric SMAC peptide, HTRF signal, read-out: XIAP BIR2-3 IC50

T2 sequence (P98170 125-356 C202A/C213G): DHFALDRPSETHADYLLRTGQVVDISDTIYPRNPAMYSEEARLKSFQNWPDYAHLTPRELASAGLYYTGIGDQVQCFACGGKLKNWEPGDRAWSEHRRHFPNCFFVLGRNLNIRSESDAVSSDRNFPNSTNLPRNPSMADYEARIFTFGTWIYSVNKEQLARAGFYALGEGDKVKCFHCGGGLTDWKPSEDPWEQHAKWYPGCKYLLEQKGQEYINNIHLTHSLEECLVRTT
T1 sequence (P98170 241-356): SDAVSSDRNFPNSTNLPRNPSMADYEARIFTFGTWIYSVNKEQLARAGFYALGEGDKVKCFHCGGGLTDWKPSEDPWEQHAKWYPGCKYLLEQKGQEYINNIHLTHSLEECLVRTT

For `CN[C@@H](C)C(=O)N[C@H](C(=O)N1C[C@@H](NC(=O)c2ccc3c(c2)CN(C(=O)[C@@H](NC(=O)[C@H](C)NC)C24CC5CC(CC(C5)C2)C4)[C@H](C(=O)NC2CCCc4ccccc42)C3)C[C@H]1C(=O)NC1CCCc2ccccc21)C(C)(C)C` (stereo partly drawn) [Example 10, (S)-2-((S)-2-((3S,5S,7S)-Adamantan-1-yl)-2-((S)-2-(methylamino)propanamido)acetyl)-N^7-((3S,5S)-1-((S)-3,3-dimethyl-2-((S)-2-(methylamino)propanamido)butanoyl)-5-(((R)-1,2,3,4-tetrahydronaphthalen-1-yl)carbamoyl)pyrrolidin-3-yl)-N^3-((R)-1,2,3,4-tetrahydronaphthalen-1-yl)-1,2,3,4-tetrahydroisoquinoline-3,7-dicarboxamide], which IC50 (XIAP BIR3; [1]) is on record?
The IC50 was 63 nM.

What about the IC50 (XIAP BIR2-3; [2]) of the same compound?
The IC50 was 4 nM.

With `CN[C@@H](C)C(=O)N[C@@H](Cc1cc(F)cc(F)c1)C(=O)N1Cc2cc(C(=O)N[C@H]3C[C@@H](C(=O)N[C@@H]4CCCc5ccccc54)N(C(=O)[C@@H](NC(=O)[C@H](C)NC)C(C)(C)C)C3)ccc2C[C@H]1C(=O)N[C@@H]1CCCc2ccccc21` [Example 11, (S)-2-((S)-3-(3,5-Difluorophenyl)-2-((S)-2-(methylamino)propanamido)propanoyl)-N^7-((3S,5S)-1-((S)-3,3-dimethyl-2-((S)-2-(methylamino)propanamido)butanoyl)-5-(((R)-1,2,3,4-tetrahydronaphthalen-1-yl)carbamoyl)pyrrolidin-3-yl)-N^3-((R)-1,2,3,4-tetrahydronaphthalen-1-yl)-1,2,3,4-tetrahydroisoquinoline-3,7-dicarboxamide] as the compound, how does the IC50 (XIAP BIR3; [1]) read?
The IC50 was 25 nM.

What about the IC50 (XIAP BIR2-3; [2]) of the same compound?
The IC50 was 10 nM.

How did the IC50 (XIAP BIR3; [1]) turn out when `CN[C@@H](C)C(=O)N[C@H](C(=O)N1Cc2cc(C(=O)N[C@H]3C[C@@H](C(=O)N[C@@H]4CCCc5ccccc54)N(C(=O)[C@@H](NC(=O)[C@H](C)NC)C(C)(C)C)C3)ccc2C[C@H]1C(=O)N[C@@H]1CCCc2ccccc21)C1CCCC1` [Example 12, (S)-2-((S)-2-Cyclopentyl-2-((S)-2-(methylamino)propanamido)acetyl)-N^7-((3S,5S)-1-((S)-3,3-dimethyl-2-((S)-2-(methylamino)propanamido)butanoyl)-5-(((R)-1,2,3,4-tetrahydronaphthalen-1-yl)carbamoyl)pyrrolidin-3-yl)-N^3-((R)-1,2,3,4-tetrahydronaphthalen-1-yl)-1,2,3,4-tetrahydroisoquinoline-3,7-dicarboxamide] was run?
The IC50 was 19 nM.

What about the IC50 (XIAP BIR2-3; [2]) of the same compound?
Its IC50 is 15 nM.

For `CN[C@@H](C)C(=O)N[C@H](C(=O)N1Cc2cc(C(=O)N[C@H]3C[C@@H](C(=O)NC4CCCc5ccccc54)N(C(=O)[C@@H](NC(=O)[C@H](C)NC)C(C)(C)C)C3)ccc2C[C@H]1C(=O)NC1CCCc2ccccc21)C1CCOCC1` (stereo partly drawn) [Example 13], which IC50 (XIAP BIR3; [1]) is on record?
The IC50 was 6 nM.

What about the IC50 (XIAP BIR2-3; [2]) of the same compound?
The IC50 was 2 nM.

Which IC50 (XIAP BIR3; [1]) does the source give for `CCN[C@@H](C)C(=O)N[C@H](C(=O)N1C[C@@H](NC(=O)c2ccc3c(c2)CN(C(=O)[C@@H](NC(=O)[C@H](C)NC)C(C)(C)C)[C@H](C(=O)N[C@@H]2CCCc4ccccc42)C3)C[C@H]1C(=O)N[C@@H]1CCCc2ccccc21)C(C)(C)C` [Example 14, (S)-2-((S)-3,3-Dimethyl-2-((S)-2-(methylamino)propanamido)butanoyl)-N^7-((3S,5S)-1-((S)-2-((S)-2-(ethylamino)propanamido)-3,3-dimethylbutanoyl)-5-(((R)-1,2,3,4-tetrahydronaphthalen-1-yl)carbamoyl)pyrrolidin-3-yl)-N^3-((R)-1,2,3,4-tetrahydronaphthalen-1-yl)-1,2,3,4-tetrahydroisoquinoline-3,7-dicarboxamide] here?
The IC50 was 29 nM.

And the IC50 (XIAP BIR2-3; [2])?
The IC50 was 15 nM.

What does the source list for `CC[C@H](NC)C(=O)N[C@H](C(=O)N1C[C@@H](NC(=O)c2ccc3c(c2)CN(C(=O)[C@@H](NC(=O)[C@H](C)NC)C(C)(C)C)[C@H](C(=O)N[C@@H]2CCCc4ccccc42)C3)C[C@H]1C(=O)N[C@@H]1CCCc2ccccc21)C(C)(C)C` [Example 15, (S)-N^7-((3S,5S)-1-((S)-3,3-Dimethyl-2-((S)-2-(methylamino)butanamido)butanoyl)-5-(((R)-1,2,3,4-tetrahydronaphthalen-1-yl)carbamoyl)pyrrolidin-3-yl)-2-((S)-3,3-dimethyl-2-((S)-2-(methylamino)propanamido)butanoyl)-N^3-((R)-1,2,3,4-tetrahydronaphthalen-1-yl)-1,2,3,4-tetrahydroisoquinoline-3,7-dicarboxamide]?
IC50 (XIAP BIR3; [1]): 16 nM; IC50 (XIAP BIR2-3; [2]): 5 nM

Which IC50 (XIAP BIR3; [1]) does the source give for `CCC(CC)[C@H](NC(=O)[C@H](CC)NC)C(=O)N1C[C@@H](NC(=O)c2ccc3c(c2)CN(C(=O)[C@@H](NC(=O)[C@H](C)NC)C(C)(C)C)[C@H](C(=O)N[C@@H]2CCCc4ccccc42)C3)C[C@H]1C(=O)N[C@@H]1CCCc2ccccc21` [Example 16, (S)-2-((S)-3,3-Dimethyl-2-((S)-2-(methylamino)propanamido)butanoyl)-N^7-((3S,5S)-1-((S)-3-ethyl-2-((S)-2-(methylamino)butanamido)pentanoyl)-5-(((R)-1,2,3,4-tetrahydronaphthalen-1-yl)carbamoyl)pyrrolidin-3-yl)-N^3-((R)-1,2,3,4-tetrahydronaphthalen-1-yl)-1,2,3,4-tetrahydroisoquinoline-3,7-dicarboxamide] here?
Its IC50 is 19 nM.

And the IC50 (XIAP BIR2-3; [2])?
Its IC50 is 10 nM.

How did the IC50 (XIAP BIR3; [1]) turn out when `CCC(CC)[C@H](NC(=O)[C@H](C)NC)C(=O)N1C[C@@H](NC(=O)c2ccc3c(c2)CN(C(=O)[C@@H](NC(=O)[C@H](C)NC)C(C)(C)C)[C@H](C(=O)N[C@@H]2CCCc4ccccc42)C3)C[C@H]1C(=O)N[C@@H]1CCCc2ccccc21` [Example 17, (S)-2-((S)-3,3-Dimethyl-2-((S)-2-(methylamino)propanamido)butanoyl)-N^7-((3S,5S)-1-((S)-3-ethyl-2-((S)-2-(methylamino)propanamido)pentanoyl)-5-(((R)-1,2,3,4-tetrahydronaphthalen-1-yl)carbamoyl)pyrrolidin-3-yl)-N^3-((R)-1,2,3,4-tetrahydronaphthalen-1-yl)-1,2,3,4-tetrahydroisoquinoline-3,7-dicarboxamide] was run?
Its IC50 is 2 nM.

What about the IC50 (XIAP BIR2-3; [2]) of the same compound?
The IC50 was 2 nM.

For `CCN[C@@H](C)C(=O)N[C@H](C(=O)N1Cc2cc(C(=O)N[C@H]3C[C@@H](C(=O)N[C@@H]4CCCc5ccccc54)N(C(=O)[C@@H](NC(=O)[C@H](C)NC)C(C)(C)C)C3)ccc2C[C@H]1C(=O)N[C@@H]1CCCc2ccccc21)C(CC)CC` [Example 18, (S)-N^7-((3S,5S)-1-((S)-3,3-Dimethyl-2-((S)-2-(methylamino)propanamido)butanoyl)-5-(((R)-1,2,3,4-tetrahydronaphthalen-1-yl)carbamoyl)pyrrolidin-3-yl)-2-((S)-3-ethyl-2-((S)-2-(ethylamino)propanamido)pentanoyl)-N^3-((R)-1,2,3,4-tetrahydronaphthalen-1-yl)-1,2,3,4-tetrahydroisoquinoline-3,7-dicarboxamide], which IC50 (XIAP BIR3; [1]) is on record?
Its IC50 is 9 nM.

And the IC50 (XIAP BIR2-3; [2])?
Its IC50 is 4 nM.

Which results are given for `CCC(CC)[C@H](NC(=O)[C@H](CC)NC)C(=O)N1Cc2cc(C(=O)N[C@H]3C[C@@H](C(=O)N[C@@H]4CCCc5ccccc54)N(C(=O)[C@@H](NC(=O)[C@H](C)NC)C(C)(C)C)C3)ccc2C[C@H]1C(=O)N[C@@H]1CCCc2ccccc21` [Example 19, (S)-N^7-((3S,5S)-1-((S)-3,3-Dimethyl-2-((S)-2-(methylamino)propanamido)butanoyl)-5-(((R)-1,2,3,4-tetrahydronaphthalen-1-yl)carbamoyl)pyrrolidin-3-yl)-2-((S)-3-ethyl-2-((S)-2-(methylamino)butanamido)pentanoyl)-N^3-((R)-1,2,3,4-tetrahydronaphthalen-1-yl)-1,2,3,4-tetrahydroisoquinoline-3,7-dicarboxamide]?
IC50 (XIAP BIR3; [1]): 7 nM; IC50 (XIAP BIR2-3; [2]): 2 nM

Which IC50 (XIAP BIR3) does the source give for `CN[C@@H](C)C(=O)N[C@H](C(=O)N1Cc2cc(N[C@H]3C[C@@H](C(=O)N[C@@H]4CCCc5ccccc54)N(C(=O)[C@@H](NC(=O)[C@H](C)NC)C(C)(C)C)C3)ccc2C[C@H]1C(=O)N[C@@H]1CCCc2ccccc21)C(C)(C)C` [Example 20, (S)-2-((S)-3,3-Dimethyl-2-((S)-2-(methylamino)propanamido)butanoyl)-7-(((3S,5S)-1-((S)-3,3-dimethyl-2-((S)-2-(methylamino)propanamido)butanoyl)-5-(((R)-1,2,3,4-tetrahydronaphthalen-1-yl)carbamoyl)pyrrolidin-3-yl)amino)-N—((R)-1,2,3,4-tetrahydronaphthalen-1-yl)-1,2,3,4-tetrahydroisoquinoline-3-carboxamide] here?
The IC50 was 13 nM.

And the IC50 (XIAP BIR2-3)?
Its IC50 is 3 nM.

What does the source list for `CN[C@@H](C)C(=O)N[C@H](C(=O)N1Cc2cc(O[C@H]3C[C@@H](C(=O)N[C@@H]4CCCc5ccccc54)N(C(=O)[C@@H](NC(=O)[C@H](C)NC)C(C)(C)C)C3)ccc2C[C@H]1C(=O)N[C@@H]1CCCc2ccccc21)C(C)(C)C` [Example 21, (S)-2-((S)-3,3-Dimethyl-2-((S)-2-(methylamino)propanamido)butanoyl)-7-(((3S,5S)-1-((S)-3,3-dimethyl-2-((S)-2-(methylamino)propanamido)butanoyl)-5-(((R)-1,2,3,4-tetrahydronaphthalen-1-yl)carbamoyl)pyrrolidin-3-yl)oxy)-N—((R)-1,2,3,4-tetrahydronaphthalen-1-yl)-1,2,3,4-tetrahydroisoquinoline-3-carboxamide]?
IC50 (XIAP BIR3): 30 nM; IC50 (XIAP BIR2-3): 3 nM

Reference: patent US8889712B2, “IAP antagonists” (Bristol-Myers Squibb Company, priority 2012, dated 2014)
